Experiments:
[1] = tested on: MCF7; test: Antiproliferative activity against MCF7 cells; type: functional, cell-based; settings: Homo sapiens
[2] = molecular target: Cyclin-dependent kinase 2/cyclin A (Homo sapiens, UniProt P24941); test: Inhibition of CDK2/Cyclin A; type: protein-complex assay
[3] = Antiproliferative activity against ID8 cells; type: functional, cell-based; settings: Mus musculus

SMILES	IC50 [1]	IC50 [2]	IC50 [3]
COc1ccc(C(=O)Nc2ccc(O)c3c(=O)cc(-c4ccccc4Cl)oc23)cc1	3.5 µM	383 µM	5 µM
C[C@H](NC(=O)OC(C)(C)C)C(=O)Nc1ccc(O)c2c(=O)cc(-c3ccccc3Cl)oc12	5.5 µM	417 µM	9.8 µM
COc1ccc(C(=O)Nc2c(O)cc(O)c3c(=O)cc(-c4ccccc4Cl)oc23)cc1	13 µM	54 µM	
O=C(Nc1ccc(O)c2c(=O)cc(-c3ccccc3Cl)oc12)c1ccc(Cl)c(Cl)c1	15 µM	217 µM	13 µM
CC(C)(C)OC(=O)N[C@H](Cc1ccccc1)C(=O)Nc1ccc(O)c2c(=O)cc(-c3ccccc3Cl)oc12	4.5 µM	417 µM	12 µM
Cc1ccc(C(=O)Nc2ccc(O)c3c(=O)cc(-c4ccccc4Cl)oc23)cc1	10 µM		16 µM
CSCC[C@H](NC(=O)OC(C)(C)C)C(=O)Nc1ccc(O)c2c(=O)cc(-c3ccccc3Cl)oc12	20 µM		6.2 µM
O=c1cc(-c2ccccc2Cl)oc2c(N3CCOCC3)ccc(O)c12	20 µM	417 µM	7.9 µM
CC(C)C[C@H](NC(=O)OC(C)(C)C)C(=O)Nc1ccc(O)c2c(=O)cc(-c3ccccc3Cl)oc12	4 µM	417 µM	5.1 µM
CSCC[C@@H](NC(=O)OC(C)(C)C)C(=O)Nc1ccc(O)c2c(=O)cc(-c3ccccc3Cl)oc12	2.8 µM		13 µM
Cc1ccc(C(=O)Nc2c(O)cc(O)c3c(=O)cc(-c4ccccc4Cl)oc23)cc1	9.7 µM	90 µM	
O=C(Nc1ccc(O)c2c(=O)cc(-c3ccccc3Cl)oc12)c1ccc(Cl)cc1	4.6 µM	417 µM	5.5 µM
O=C(Nc1c(O)cc(O)c2c(=O)cc(-c3ccccc3Cl)oc12)c1ccccc1	8.5 µM	91 µM	
C[C@@H](NC(=O)OC(C)(C)C)C(=O)Nc1ccc(O)c2c(=O)cc(-c3ccccc3Cl)oc12	5.5 µM		104 µM
O=C(Nc1ccc(O)c2c(=O)cc(-c3ccccc3Cl)oc12)c1ccccc1	7.1 µM	417 µM	13 µM
CCC(C)OC(=O)Nc1ccc(O)c2c(=O)cc(-c3ccccc3Cl)oc12 (stereo not given)	30 µM	417 µM	18 µM
CC(C)(C)OC(=O)N[C@@H](Cc1ccccc1)C(=O)Nc1ccc(O)c2c(=O)cc(-c3ccccc3Cl)oc12	7.1 µM	417 µM	5.3 µM
CN1CC[C@H](c2c(O)cc(O)c3c(=O)cc(-c4ccccc4Cl)oc23)[C@H](O)C1 [ALVOCIDIB]	0.026 µM		0.007 µM
O=C(Nc1c(O)cc(O)c2c(=O)cc(-c3ccccc3Cl)oc12)c1ccc(Cl)cc1	13 µM	339 µM	
CC(C)C[C@@H](NC(=O)OC(C)(C)C)C(=O)Nc1ccc(O)c2c(=O)cc(-c3ccccc3Cl)oc12		417 µM	17 µM
